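Following 48 hours of exposure in 96-well plates, responses at five concentrations were used to interpolate endpoints linearly. GI50 is the concentration that inhibits growth by half.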 Active and inactive are the calls of the source. Rule as the data show it: active = GI50 up to about 1.1 µM and inactive = higher.

Some test systems named below: A498; NCI-H460; M14; OVCAR-4; COLO 205; IGROV-1; HL-60; SF-539; HT-29; HCT-15; RXF 393; OVCAR-3; MDA-MB-231; U-251; PC-3; NCI-H226; UO-31; RPMI-8226; SK-MEL-5; Malme-3M.
Test in all cases: NCI anticancer screen, dose series, 48 h

`CC(C)OC(=O)c1ccc(CCc2cc(O)c(Br)cc2O)cc1`: the GI50 is 21 µM (inactive) in the assay on A498; 18.6 µM (inactive) in the assay with NCI-H460; 15.6 µM (inactive) with M14; 2.31 µM (inactive) in the assay with OVCAR-4; 15.2 µM (inactive) in the assay on COLO 205; 9.2 µM (inactive) with IGROV-1. Moreover, the GI50 is 5.85 µM (inactive) in the assay with HL-60; 7.36 µM (inactive) in the assay on SF-539; 18.7 µM (inactive) with HT-29; 6.18 µM with HCT-15; 15 µM (inactive) in the assay on RXF 393; 8.11 µM (inactive) with OVCAR-3. The GI50 in the assay on MDA-MB-231 is 12 µM (inactive); in the assay with U-251, 7.48 µM (inactive); in the assay with PC-3, 8.32 µM (inactive); with NCI-H226, 18.7 µM (inactive); in the assay with UO-31 it was 5.52 µM (inactive); with RPMI-8226, 2.72 µM (inactive). Besides, the GI50 is 15.1 µM (inactive) in the assay with SK-MEL-5 and 17.2 µM (inactive) with Malme-3M.
With `Cn1c2c(c3ccccc31)CCN1C(=O)CCC21` (stereo not given), the GI50 with A498, in the assay on NCI-H460, in the assay on M14, in the assay with OVCAR-4, in the assay on COLO 205 and in the assay with IGROV-1 was > 10 µM (inactive) throughout. In addition, the GI50 is > 10 µM (inactive) in the assay with HL-60; > 10 µM (inactive) in the assay with SF-539; > 10 µM (inactive) with HT-29; more than 10 µM in the assay with HCT-15; > 10 µM (inactive) with RXF 393; > 10 µM (inactive) in the assay with OVCAR-3. For the same molecule, the GI50 with MDA-MB-231, with U-251, in the assay on PC-3, with NCI-H226, with UO-31 and with RPMI-8226 was > 10 µM (inactive) each time. Moreover, the GI50 in the assay on SK-MEL-5 and with Malme-3M was > 10 µM (inactive) each time.
Turning to `CN(C)CCNC(=O)c1ccc(NCCCN(C)CCCNc2ccc3c(=O)n(CCN(C)C)c(=O)n4c5ccccc5c(=O)c2c34)c2c(O)c3ccccc3nc12`, the GI50 in the assay with A498 was 0.0759 µM (active); with NCI-H460, < 0.01 µM (active); in the assay with M14, 0.164 µM (active); in the assay on OVCAR-4, < 0.01 µM (active); with COLO 205, < 0.0108 µM (active); in the assay with IGROV-1 it was < 0.01 µM (active). For the same molecule, the GI50 in the assay with HL-60 is 0.0318 µM (active); in the assay on SF-539, 0.138 µM (active); in the assay with HT-29, < 0.01 µM (active); in the assay with HCT-15, 0.0155 µM; in the assay with RXF 393, 0.075 µM (active); in the assay on OVCAR-3 it was < 0.011 µM (active). The GI50 with MDA-MB-231 was < 0.027 µM (active); in the assay on U-251, < 0.01 µM (active); with PC-3 it was < 0.01 µM (active); with NCI-H226 it was < 0.0214 µM (active); in the assay on UO-31 it was < 0.01 µM (active); with RPMI-8226, < 0.01 µM (active). Besides, the GI50 in the assay on SK-MEL-5 was 0.0617 µM (active); with Malme-3M it was 0.0271 µM (active).
Turning to `Cc1cc(=O)n2nc(SCc3ccccc3)sc2n1`, the GI50 in the assay on A498, in the assay on NCI-H460, in the assay on M14, in the assay on OVCAR-4, with COLO 205 and with IGROV-1 was > 100 µM (inactive) in each case. Also, the GI50 with HL-60 was > 100 µM (inactive); in the assay with SF-539 it was > 100 µM (inactive); in the assay with HT-29 it was > 100 µM (inactive); with HCT-15 it was more than 100 µM; with RXF 393 it was 60.3 µM (inactive); in the assay with OVCAR-3, > 100 µM (inactive). Further, the GI50 in the assay on MDA-MB-231 was > 100 µM (inactive); with U-251 it was > 100 µM (inactive); in the assay on PC-3, > 100 µM (inactive); in the assay with NCI-H226 it was > 100 µM (inactive); with UO-31 it was 24.3 µM (inactive); in the assay with RPMI-8226, > 100 µM (inactive). Moreover, the GI50 with SK-MEL-5 is 43.2 µM (inactive); in the assay with Malme-3M, > 100 µM (inactive).
Turning to `Sc1ccc2ccccc2c1CNCc1ccccc1`, the GI50 is 16.3 µM (inactive) in the assay with A498; 24.1 µM (inactive) with NCI-H460; 10 µM (inactive) in the assay on M14; 10.9 µM (inactive) with OVCAR-4; 13.7 µM (inactive) in the assay with COLO 205; 2.65 µM (inactive) with IGROV-1. For the same molecule, the GI50 with HL-60 is 5.77 µM (inactive); with SF-539, 10 µM (inactive); with HT-29, 27.9 µM (inactive); in the assay with HCT-15 it was 16.4 µM; with RXF 393, 11.8 µM (inactive); with OVCAR-3, 13.6 µM (inactive). The GI50 is 18.5 µM (inactive) in the assay on MDA-MB-231; 12.8 µM (inactive) in the assay with U-251; 18.8 µM (inactive) in the assay with PC-3; 3.08 µM (inactive) in the assay on NCI-H226; 11.7 µM (inactive) in the assay on UO-31; 12.5 µM (inactive) with RPMI-8226. For the same molecule, the GI50 in the assay on SK-MEL-5 is 9.46 µM (inactive); in the assay on Malme-3M, 21.8 µM (inactive).
With `COc1ccc(Oc2cnn(C(Br)(Br)C(C)=O)c(=O)c2Br)cc1`, the GI50 in the assay with A498 was 24.8 µM (inactive); in the assay on NCI-H460, 18.8 µM (inactive); in the assay with M14, 13.9 µM (inactive); with OVCAR-4, 17.4 µM (inactive); in the assay with COLO 205 it was 13.4 µM (inactive); in the assay with IGROV-1, 18.5 µM (inactive). In addition, the GI50 with HL-60 is 1.97 µM (inactive); with SF-539 it was 12.4 µM (inactive); with HT-29, 15.3 µM (inactive); with HCT-15 it was 16 µM; with RXF 393 it was 6.08 µM (inactive); in the assay on OVCAR-3, 4.19 µM (inactive). For the same molecule, the GI50 in the assay with MDA-MB-231 was 17.9 µM (inactive); in the assay with U-251, 13.9 µM (inactive); in the assay on PC-3 it was 14.1 µM (inactive); in the assay on NCI-H226, 21.4 µM (inactive); in the assay with UO-31, 7.66 µM (inactive); in the assay with RPMI-8226, 3.14 µM (inactive). Also, the GI50 was 16 µM (inactive) in the assay with SK-MEL-5 and 17.1 µM (inactive) in the assay on Malme-3M.

The values are drawn from ChEMBL document CHEMBL1201862, “PubChem BioAssay data set” (2004).
